# Structures can show the parent of a compound that is named as a salt.
# Assay: hygroscopicity of the solid form
# Type: physicochemical
# Settings: solid substance, amorphous free base versus crystalline p-toluene sulfonic acid salt
Compound,hygroscopicity (listed as p-toluene sulfonic salt),hygroscopicity
"CC(=O)O[C@@H]1C[C@@H](CO)O[C@H]1n1c(=O)sc2cnc(N)nc21 [Formula (1), p-toluene sulfonic acid salt of 5-amino-3-(2′-O-acetyl-3′-deoxy-beta-D-ribofuranosyl)-3H-thiazolo[4,5-d]pyrimidin-2-one]",only slightly hygroscopic,–
"CC(=O)O[C@@H]1C[C@@H](CO)O[C@H]1n1c(=O)sc2cnc(N)nc21 [Formula 5, 5-amino-3-(2′-O-acetyl-3′-deoxy-beta-D-ribofuranosyl)-3H-thiazolo[4,5-d]pyrimidin-2-one]",–,hydroscopic

# — patent publication US7928085B2, “P-toluene sulfonic acid salt of 5-amino-3-(2′-O-acetyl-3′-deoxy-β-D-ribofuranosyl)-3H-thiazole[4,5-d]pyrimidine-2-one and methods for preparation” (Anadys Pharmaceuticals, Inc., priority 2006, dated 2011)
